What was measured:
Format in all cases: cell-based
Streptococcus uberis [1] = assay: Group D Streptococci identification, esculin/ferric citrate in TSB (blackening = growth), bacteria in milk; conditions: TSB containing 0.5% esculin and 0.25% ferric citrate + 80 uL spiked milk; 100 ug/ml aztreonam and/or 0.5 mg/mL phenol red
Experimental: By way of illustration, the same experiment was conducted as above, only this time using clinical milk samples obtained from a bovine animal suspect of being infected with mastitis.
However, Applicant has discovered that increased amounts of esculin and ferric citrate may be used in milk derived clinical samples. For example, at concentrations of at least 2% esculin and 1% ferric citrate, the growth of Streptococcus uberis is not inhibited.
Note, in the experiments above, the clinical sample tested was milk obtained from a bovine animal suspected of being infected by mastitis. If a non-milk clinical sample were to be tested, then inclusion of a stabilizing agent (e.g. milk in the form of a liquid or powder) would be required in order to suppress the growth inhibitory effect of esculin and ferric citrate at the higher concentrations used according to this invention.
Applicant further discovered that TSB containing 0.5% esculin and 0.25% ferric citrate and 80 uL of spiked Streptococcus uberis milk sample which also contained 100 ug/ml aztreonam concentration (antibiotic which has activity against many gram-bacteria such as E. coli) and/or in combination with 0.5 mg/mL phenol red led to easy detectable colour changes. No inhibition of Streptococcus uberis due to phenol red or aztreonam was detected.

Escherichia coli = assay: Antibiotic susceptibility testing (colour of media), spiked milk; conditions: for Colour of media in each well: 37° C., plate configuration #3
Staphylococcus aureus = assay: as above; conditions: for Colour of media: Tryptic Soy (70 ul composition 2c), bacteria sample 5c; for Colour of media in each well: T~16 h, 37° C., plate configuration #3
Streptococcus uberis [2] = assay: as above; conditions: for Colour of media in each well: T~16 h, 37° C., bacteria samples 6d, plate configuration #3
[3] = bacteria sample 4d 4 μl + Composition 27 1 μl + drug solution (100 μg Aztreonam per ml water) 0.5 μl
[4] = bacteria sample 4d 8 μl + Composition 27 2 μl + drug solution (100 μg Aztreonam per ml water) 1 μl
[5] = bacteria sample 4d 20 μl + Composition 27 5 μl + drug solution (100 μg Aztreonam per ml water) 2.5 μl
[6] = bacteria sample 4d 40 μl + Composition 27 10 μl + drug solution (100 μg Aztreonam per ml water) 5 μl
[7] = bacteria sample 4d 80 μl + Composition 27 20 μl + drug solution (100 μg Aztreonam per ml water) 10 μl
[8] = bacteria sample 4d 160 μl + Composition 27 40 μl + drug solution (100 μg Aztreonam per ml water) 20 μl
[9] = bacteria sample 6d 4 μl + Composition 27 1 μl + drug solution (100 μg Aztreonam per ml water) 0.5 μl
[10] = bacteria sample 6d 8 μl + Composition 27 2 μl + drug solution (100 μg Aztreonam per ml water) 1 μl
[11] = bacteria sample 6d 20 μl + Composition 27 5 μl + drug solution (100 μg Aztreonam per ml water) 2.5 μl
[12] = bacteria sample 6d 40 μl + Composition 27 10 μl + drug solution (100 μg Aztreonam per ml water) 5 μl
[13] = bacteria sample 6d 80 μl + Composition 27 20 μl + drug solution (100 μg Aztreonam per ml water) 10 μl
[14] = bacteria sample 6d 160 μl + Composition 27 40 μl + drug solution (100 μg Aztreonam per ml water) 20 μl

For C[C@H]1[C@H](NC(=O)/C(=N\OC(C)(C)C(=O)O)c2csc(N)n2)C(=O)N1S(=O)(=O)O [aztreonam], the “Inhibition of Streptococcus uberis” value (Streptococcus uberis [1]) was “No inhibition”, the “Colour of media in each well” value (Escherichia coli; T~16 h, bacteria samples 4c, Aztreonam 0.001 μg/ml) was “yellow” and the “Colour of media in each well” value (Escherichia coli; T~16 h, bacteria samples 4c, Aztreonam 0.01 μg/ml) was “yellow”. For the same compound, the “Colour of media in each well” value (Escherichia coli; T~16 h, bacteria samples 4c, Aztreonam 0.1 μg/ml) was “yellow”, the “Colour of media in each well” value (Escherichia coli; T~16 h, bacteria samples 4c, Aztreonam 1 μg/ml) was “yellow” and the “Colour of media in each well” value (Escherichia coli; T~16 h, bacteria samples 4c, Aztreonam 10 μg/ml) was “yellow”. The “Colour of media after 24 hours incubation at 37° C.” value (“Colour of media … at 37° C.” below) (Escherichia coli; [3]) was “Red”, the “Colour of media prior incubation” value (Escherichia coli; [3]) was “Red” and the “Colour of media … at 37° C.” value (Escherichia coli; [4]) was “Red”. For the same compound, the “Colour of media prior incubation” value (Escherichia coli; [4]) was “Red”, the “Colour of media … at 37° C.” value (Escherichia coli; [5]) was “Red” and the “Colour of media prior incubation” value (Escherichia coli; [5]) was “Red”. For the same compound, the “Colour of media … at 37° C.” value (Escherichia coli; [6]) was “Red”, the “Colour of media prior incubation” value (Escherichia coli; [6]) was “Red” and the “Colour of media … at 37° C.” value (Escherichia coli; [7]) was “Red”. The “Colour of media prior incubation” value (Escherichia coli; [7]) was “Red”, the “Colour of media … at 37° C.” value (Escherichia coli; [8]) was “Red” and the “Colour of media prior incubation” value (Escherichia coli; [8]) was “Red”. For the same compound, the “Colour of media in each well” value (Escherichia coli; t~16 h, bacteria samples 4e, Aztreonam 0.001 μg/ml) was “yellow”, the “Colour of media in each well” value (Escherichia coli; t~16 h, bacteria samples 4e, Aztreonam 0.01 μg/ml) was “yellow” and the “Colour of media in each well” value (Escherichia coli; t~16 h, bacteria samples 4e, Aztreonam 0.1 μg/ml) was “yellow”. The “Colour of media in each well” value (Escherichia coli; t~16 h, bacteria samples 4e, Aztreonam 1 μg/ml) was “red”, the “Colour of media in each well” value (Escherichia coli; t~16 h, bacteria samples 4e, Aztreonam 10 μg/ml) was “red” and the Colour of media (Staphylococcus aureus; T = 0 hours (pre incubation), drug 0.01 μg/ml) was “red”. For the same compound, the Colour of media (Staphylococcus aureus; T = 0 hours (pre incubation), drug 0.05 μg/ml) was “red”, the Colour of media (Staphylococcus aureus; T = 0 hours (pre incubation), drug 0.1 μg/ml) was “red” and the Colour of media (Staphylococcus aureus; T = 0 hours (pre incubation), drug 0.5 μg/ml) was “red”. The Colour of media (Staphylococcus aureus; T = 0 hours (pre incubation), drug 1 μg/ml) was “red”, the Colour of media (Staphylococcus aureus; T = 0 hours (pre incubation), drug 5 μg/ml) was “red” and the Colour of media (Staphylococcus aureus; T = 0 hours (pre incubation), drug 10 μg/ml) was “red”. The Colour of media (Staphylococcus aureus; T = 0 hours (pre incubation), drug 50 μg/ml) was “red”, the Colour of media (Staphylococcus aureus; T = 0 hours (pre incubation), drug 100 μg/ml) was “red” and the Colour of media (Staphylococcus aureus; T = 0 hours (pre incubation), drug 500 μg/ml) was “red”. For the same compound, the Colour of media (Staphylococcus aureus; T = 15-24 h at 35° C., drug 0.01 μg/ml) was “yellow”, the Colour of media (Staphylococcus aureus; T = 15-24 h at 35° C., drug 0.05 μg/ml) was “yellow” and the Colour of media (Staphylococcus aureus; T = 15-24 h at 35° C., drug 0.1 μg/ml) was “yellow”. For the same compound, the Colour of media (Staphylococcus aureus; T = 15-24 h at 35° C., drug 0.5 μg/ml) was “yellow”, the Colour of media (Staphylococcus aureus; T = 15-24 h at 35° C., drug 1 μg/ml) was “yellow” and the Colour of media (Staphylococcus aureus; T = 15-24 h at 35° C., drug 5 μg/ml) was “yellow”. For the same compound, the Colour of media (Staphylococcus aureus; T = 15-24 h at 35° C., drug 10 μg/ml) was “yellow”, the Colour of media (Staphylococcus aureus; T = 15-24 h at 35° C., drug 50 μg/ml) was “yellow” and the Colour of media (Staphylococcus aureus; T = 15-24 h at 35° C., drug 100 μg/ml) was “yellow”. For the same compound, the Colour of media (Staphylococcus aureus; T = 15-24 h at 35° C., drug 500 μg/ml) was “yellow”, the “Colour of media in each well” value (Staphylococcus aureus; bacteria samples 5c, Aztreonam 0.001 μg/ml) was “red” and the “Colour of media in each well” value (Staphylococcus aureus; bacteria samples 5c, Aztreonam 0.01 μg/ml) was “yellow”. The “Colour of media in each well” value (Staphylococcus aureus; bacteria samples 5c, Aztreonam 0.1 μg/ml) was “yellow”, the “Colour of media in each well” value (Staphylococcus aureus; bacteria samples 5c, Aztreonam 1 μg/ml) was “yellow” and the “Colour of media in each well” value (Staphylococcus aureus; bacteria samples 5c, Aztreonam 10 μg/ml) was “yellow”. The “Colour of media in each well” value (Staphylococcus aureus; bacteria samples 5e, Aztreonam 0.001 μg/ml) was “yellow”, the “Colour of media in each well” value (Staphylococcus aureus; bacteria samples 5e, Aztreonam 0.01 μg/ml) was “yellow” and the “Colour of media in each well” value (Staphylococcus aureus; bacteria samples 5e, Aztreonam 0.1 μg/ml) was “yellow”. The “Colour of media in each well” value (Staphylococcus aureus; bacteria samples 5e, Aztreonam 1 μg/ml) was “yellow”, the “Colour of media in each well” value (Staphylococcus aureus; bacteria samples 5e, Aztreonam 10 μg/ml) was “yellow” and the “Colour of media in each well” value (Streptococcus uberis [2]; Aztreonam 0.001 μg/ml) was “yellow”. The “Colour of media in each well” value (Streptococcus uberis [2]; Aztreonam 0.01 μg/ml) was “yellow”, the “Colour of media in each well” value (Streptococcus uberis [2]; Aztreonam 0.1 μg/ml) was “yellow” and the “Colour of media in each well” value (Streptococcus uberis [2]; Aztreonam 1 μg/ml) was “yellow”. For the same compound, the “Colour of media in each well” value (Streptococcus uberis [2]; Aztreonam 10 μg/ml) was “yellow”, the “Colour of media … at 37° C.” value (Streptococcus uberis [2]; [9]) was “Black” and the “Colour of media prior incubation” value (Streptococcus uberis [2]; [9]) was “Red”. The “Colour of media … at 37° C.” value (Streptococcus uberis [2]; [10]) was “Black”, the “Colour of media prior incubation” value (Streptococcus uberis [2]; [10]) was “Red” and the “Colour of media … at 37° C.” value (Streptococcus uberis [2]; [11]) was “Black”. For the same compound, the “Colour of media prior incubation” value (Streptococcus uberis [2]; [11]) was “Red”, the “Colour of media … at 37° C.” value (Streptococcus uberis [2]; [12]) was “Black” and the “Colour of media prior incubation” value (Streptococcus uberis [2]; [12]) was “Red”. For the same compound, the “Colour of media … at 37° C.” value (Streptococcus uberis [2]; [13]) was “Black”, the “Colour of media prior incubation” value (Streptococcus uberis [2]; [13]) was “Red” and the “Colour of media … at 37° C.” value (Streptococcus uberis [2]; [14]) was “Black”. For the same compound, the “Colour of media prior incubation” value (Streptococcus uberis [2]; [14]) was “Red”.

— US10829796B2, “Bacteria identification and antimicrobial susceptibility test” (priority 2015, dated 2020)
